Measurements taken from ChEMBL document CHEMBL5096222, “Discovery of a Trifluoromethoxy Cyclopentanone Benzothiazole Receptor-Interacting Protein Kinase 1 Inhibitor as the Treatment for Alzheimer's Disease” (J Med Chem, 2022).

Key:
[1] = Cytotoxicity against human HT-29 cells assessed as reduction in cell viability by celltiter-glo luminescent cell viability assay; type: toxicity, cell-based
HT-29 = test: Anti-necroptotic activity in TSZ induced human HT-29 cells assessed as increase in cell viability pretreated with compound followed by TSZ stimulation and measured after 16 hrs by celltiter-glo luminescent cell viability assay; type: functional, cell-based
[2] = target: Receptor-interacting serine/threonine-protein kinase 3 (Homo sapiens, UniProt Q9Y572); test: Binding affinity to recombinant human wild type partial length RIPK3 (M1 to Q307 residues) expressed in bacterial expression system by KINOMEscan TM assay
[3] = target: T1, Receptor-interacting serine/threonine-protein kinase 1 (Homo sapiens, UniProt Q13546); test: Binding affinity to recombinant human wild type partial length RIPK1 (M1 to K305 residues) expressed in bacterial expression system by KINOMEscan TM assay
T1 sequence (Q13546 whole entry): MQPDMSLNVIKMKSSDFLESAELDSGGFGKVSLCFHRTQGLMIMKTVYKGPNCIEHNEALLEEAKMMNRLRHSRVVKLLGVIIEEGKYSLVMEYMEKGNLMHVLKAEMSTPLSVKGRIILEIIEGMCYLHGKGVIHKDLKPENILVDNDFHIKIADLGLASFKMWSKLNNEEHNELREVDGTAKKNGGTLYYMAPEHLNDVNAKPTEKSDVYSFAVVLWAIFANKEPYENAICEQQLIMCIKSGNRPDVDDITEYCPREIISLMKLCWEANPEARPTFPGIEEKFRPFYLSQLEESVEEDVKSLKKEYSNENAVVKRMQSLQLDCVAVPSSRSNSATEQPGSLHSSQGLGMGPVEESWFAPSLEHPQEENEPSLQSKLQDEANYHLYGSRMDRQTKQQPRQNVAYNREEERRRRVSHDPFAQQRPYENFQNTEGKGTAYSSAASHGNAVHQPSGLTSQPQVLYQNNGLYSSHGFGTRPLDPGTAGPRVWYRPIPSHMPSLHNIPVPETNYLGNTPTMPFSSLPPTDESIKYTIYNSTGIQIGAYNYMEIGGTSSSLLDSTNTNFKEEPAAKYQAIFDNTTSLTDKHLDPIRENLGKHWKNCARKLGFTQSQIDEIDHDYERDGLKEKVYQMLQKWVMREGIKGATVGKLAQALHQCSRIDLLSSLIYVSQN

Receptor-interacting serine/threonine-protein kinase 3, sequence (Q9Y572 whole entry, the tested form may be a part): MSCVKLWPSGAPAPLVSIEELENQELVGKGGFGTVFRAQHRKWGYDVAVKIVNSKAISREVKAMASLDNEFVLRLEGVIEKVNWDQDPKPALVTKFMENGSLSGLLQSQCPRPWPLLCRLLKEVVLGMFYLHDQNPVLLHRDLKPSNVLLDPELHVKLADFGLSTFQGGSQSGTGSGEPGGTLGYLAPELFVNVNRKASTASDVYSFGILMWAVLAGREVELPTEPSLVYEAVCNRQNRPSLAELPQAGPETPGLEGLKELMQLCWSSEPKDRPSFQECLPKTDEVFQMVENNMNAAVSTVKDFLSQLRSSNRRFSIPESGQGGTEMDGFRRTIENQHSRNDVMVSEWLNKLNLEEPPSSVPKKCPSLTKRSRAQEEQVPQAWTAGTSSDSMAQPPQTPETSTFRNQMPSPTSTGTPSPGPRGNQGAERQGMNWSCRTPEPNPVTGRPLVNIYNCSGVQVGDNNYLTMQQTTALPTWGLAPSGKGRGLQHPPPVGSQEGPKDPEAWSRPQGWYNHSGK

Kd [2] [nM]	Kd [3] [nM]	SMILES	CC50 [1] [nM]	EC50 (HT-29) [nM]
> 5000	4.5	O=C1CCC(C(=O)Nc2nc3cc(Oc4ccc(F)c(NC(=O)Cc5cccc(OC(F)(F)F)c5)c4)c(F)cc3s2)CC1	> 50000	10
> 5000	18	O=C(Cc1cccc(OC(F)(F)F)c1)Nc1cc(Oc2cc3nc(NC(=O)C4CC4F)sc3cc2F)ccc1F (configuration not stated)	> 50000	10
77	97	O=C(Cc1cccc(C(F)(F)F)c1)Nc1cc(Oc2cc3nc(NC(=O)C4CC4)sc3cc2F)ccc1F	36500	170

More lines, now with the values behind:

SMILES	Kd [2] [nM]	Kd [3] [nM]	CC50 [1] [nM]	EC50 (HT-29) [nM]
O=C1CCC(C(=O)Nc2nc3cc(Oc4ccc(F)c(NC(=O)Cc5cccc(OC(F)(F)F)c5)c4)c(F)cc3s2)C1 (configuration not stated)	> 5000	9.6	> 50000	8
CN1C(=O)[C@@H](NC(=O)c2nnc(Cc3ccccc3)[nH]2)COc2ccccc21 [GSK2982772]	–	–	> 50000	–
